Source: patent US10023557B2 (LifeSci Pharmaceuticals, Inc., priority 2015, dated 2018)

What was measured:
[1] = target: cellular kallikrein activity (Homo sapiens (Human), UniProt P03952); assay: In vitro cellular assay (contact assay): kallikrein activity in ellagic acid-activated human plasma, Z-FR-2-AMC substrate; format: biochemical; settings: human plasma activated with ellagic acid, 37° C.
Procedure: The ability of the compounds disclosed herein to inhibit cellular kallikrein activity was quantified and the respective EC50 value was determined.
All dilutions were prepared in an assay buffer comprising 50 mM Tris-HCl pH 7.2, 150 mM NaCl, and 0.01% Triton X-100.
The ten solutions of the test compounds, prepared by serial dilution, were further diluted 50-fold in the assay buffer.
Human plasma is thawed on ice and centrifuged for 15 min at 4° C. to remove platelets. A 1 mM stock solution of ellagic acid is diluted to 8 μM and mixed with human plasma, after removing platelets, at a ratio of 1:0.8.
A 22.5 μL volume of the final mixture of human plasma and ellagic acid was added to a 96-well microwell plate and the plate was incubated for 15 min at 37° C.
The CINH inhibitor at various concentrations, prepared by serial dilutions as described above, were added to the inhibitor control wells. […] Each CINH concentration is tested in duplicates.
The test compounds at various concentrations, also prepared by serial dilutions as described above, are added to the test wells. […] Each test compound concentration was tested in duplicates.
In addition to the inhibitor control and test wells, the 96 well assay plate includes positive control wells which contained the mixture of human plasma and ellagic acid without C1NH inhibitor or test compounds, and background wells which contained neither the mixture of human plasma and ellagic acid nor the test compounds. The total volume of liquid in positive control and background wells was brought up to 35 μL, using the assay buffer.
The assay plate containing C1NH inhibitors and test compounds mixed with human plasma and ellagic acid and appropriate controls was incubated at 37° C. for 5 min. […] The reagents were mixed well by shaking the plate gently for 30 sec.
The enzyme reaction was quantified by immediate kinetic reading of the assay plate using excitation/emission wavelengths of 330 nm/440 nm respectively. Fluorescence intensity was recorded for 60 min, using a time interval of 43 sec.
The inhibition activity of the test compounds were evaluated using the EC50 values, calculated according to the dose-response curve of the test compounds, fitted using the “log(inhibitor)−response (variable slope)” equation in GraphPadPrism software (GraphPad Software, Inc.).
The percentage inhibition was calculated using the following equation:
[formula] where, Mean (BG) is the average value of the fluorescence intensity of the background wells and Mean (PC) is the average value of the fluorescence intensity of the positive control wells.
Table 4 provides the EC50 values of various compounds disclosed herein.

[2] = target: human plasma kallikrein (Homo sapiens (Human), UniProt P03952); assay: In vitro enzyme inhibition of human plasma kallikrein (PFR-AMC cleavage); format: biochemical; settings: Pro-Phe-Arg-AMC substrate, 37° C., read-out: hPK IC50
human plasma kallikrein, sequence (P03952 391-638): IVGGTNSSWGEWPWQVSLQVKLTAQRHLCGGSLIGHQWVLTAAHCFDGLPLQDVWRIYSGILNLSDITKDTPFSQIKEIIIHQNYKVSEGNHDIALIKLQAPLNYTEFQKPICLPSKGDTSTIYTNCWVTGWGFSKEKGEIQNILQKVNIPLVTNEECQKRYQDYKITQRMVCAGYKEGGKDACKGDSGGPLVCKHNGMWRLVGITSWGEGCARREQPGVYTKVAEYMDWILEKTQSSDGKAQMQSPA
human plasma kallikrein, sequence (P03952 20-390 partner): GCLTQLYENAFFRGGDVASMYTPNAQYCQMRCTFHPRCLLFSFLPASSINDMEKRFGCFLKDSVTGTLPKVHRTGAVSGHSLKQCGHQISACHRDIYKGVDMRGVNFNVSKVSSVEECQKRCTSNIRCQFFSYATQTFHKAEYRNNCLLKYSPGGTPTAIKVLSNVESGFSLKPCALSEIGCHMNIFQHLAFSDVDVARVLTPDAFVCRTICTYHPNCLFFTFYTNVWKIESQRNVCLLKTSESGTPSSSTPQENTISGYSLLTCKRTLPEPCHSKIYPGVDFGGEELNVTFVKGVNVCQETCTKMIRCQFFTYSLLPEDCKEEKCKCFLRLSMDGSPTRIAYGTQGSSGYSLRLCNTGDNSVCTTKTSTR
Procedure, shortened: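 Human plasma kallikrein and compound, diluted in 50 mM Tris-HCl pH 7.5, 150 mM NaCl, 0.01% Triton X-100, preincubated 5 min at 37 °C before PFR-AMC was added.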

cellular kallikrein activity, sequence (P03952 391-638): as the sequence (P03952 391-638) above
cellular kallikrein activity, sequence (P03952 20-390 partner): as the sequence (P03952 20-390 partner) above

Compound | EC50 [1] [nM] | IC50 [2] [nM]
COC(=O)c1cc(Cc2cc(C(=O)NCc3c(C)cc(N)nc3C)ccn2)cc2cc(Cl)cnc12 [Example 92, methyl 6-((4-(((6-amino-2,4-dimethylpyridin-3-yl)methyl)carbamoyl)pyridin-2-yl)methyl)-3-chloroquinoline-8-carboxylate] | < 100 | 
Cc1cc(N)nc(C)c1CNC(=O)c1ccnc(Cc2cc(C(=O)O)c3ncc(Cl)cc3c2)c1 [Example 93, 6-((4-(((6-amino-2,4-dimethylpyridin-3-yl)methyl)carbamoyl)pyridin-2-yl)methyl)-3-chloroquinoline-8-carboxylic acid] | < 100 | 
Cc1nc(N)ccc1CNC(=O)c1ccnc(Cc2cc(CO)c3ncc(Cl)cc3c2)c1 [Example 97, N-((6-amino-2-methylpyridin-3-yl)methyl)-2-((3-chloro-8-(hydroxymethyl)quinolin-6-yl)methyl)isonicotinamide] | < 100 | 
Cc1cc(N)nc(C)c1CNC(=O)c1ccnc(Cc2ccc3c(cc(Cl)c[n+]3[O-])c2)c1 [Example 99, 6-((4-(((6-amino-2,4-dimethylpyridin-3-yl)methyl)carbamoyl)pyridin-2-yl)methyl)-3-chloroquinoline 1-oxide] | < 100 | 
Cc1nc(N)ccc1CNC(=O)c1ccnc(Cc2cc(Cl)c3ncc(Cl)cc3c2)c1 [Example 101, N-((6-amino-2-methylpyridin-3-yl)methyl)-2-((3,8-dichloroquinolin-6-yl)methyl)isonicotinamide] | < 100 | 
Cc1cc(N)nc(C)c1CNC(=O)c1ccnc(Cc2ccc3ncc(Cl)cc3c2F)c1 [Example 102, N-((6-amino-2,4-dimethylpyridin-3-yl)methyl)-2-((3-chloro-5-fluoroquinolin-6-yl)methyl)isonicotinamide] | 100 to 1000 | 
Cc1cc(C(=O)NCc2c(C)cc(N)nc2C)cc(Cc2ccc3ncc(Cl)cc3c2)n1 [Example 104, N-((6-amino-2,4-dimethylpyridin-3-yl)methyl)-2-((3-chloroquinolin-6-yl)methyl)-6-methylisonicotinamide] | < 100 | 
Cc1cc(N)nc(C)c1CNC(=O)c1ccnc(Cc2cc3cc(Cl)cnc3cn2)c1 [Example 148, N-((6-amino-2,4-dimethylpyridin-3-yl)methyl)-2-((3-chloro-1,7-naphthyridin-6-yl)methyl)isonicotinamide] | < 100 | < 100
Cc1nc(N)ccc1CNC(=O)c1ccnc(Cc2cc3cc(Cl)cnc3cn2)c1 [Example 149, N-((6-amino-2-methylpyridin-3-yl)methyl)-2-((3-chloro-1,7-naphthyridin-6-yl)methyl)isonicotinamide] | < 100 | < 100
Cc1cc(N)nc(C)c1CNC(=O)c1ccnc(Cc2cnc3[nH]c(C(F)(F)F)cc3c2)c1 [Example 152, N-((6-amino-2,4-dimethylpyridin-3-yl)methyl)-2-((2-(trifluoromethyl)-1H-pyrrolo[2,3-b]pyridin-5-yl)methyl)isonicotinamide] | 100 to 1000 | < 100
Cc1cc(N)nc(C)c1CNC(=O)c1ccnc(Cc2cc3cc(Cl)cn3cn2)c1 [Example 153, N-((6-amino-2,4-dimethylpyridin-3-yl)methyl)-2-((6-chloropyrrolo[1,2-c]pyrimidin-3-yl)methyl)isonicotinamide] | < 100 | < 100
Cc1ccn2cnc(CNC(=O)c3ccnc(Cc4ccc5ncc(Cl)cc5c4)c3)c2c1 [Example 156, 2-((3-chloroquinolin-6-yl)methyl)-N-((7-methylimidazo[1,5-a]pyridin-1-yl)methyl)isonicotinamide] | 100 to 1000 | < 100
Cc1cc(CN)nc(C)c1CNC(=O)c1ccnc(Cc2ccc3ncc(Cl)cc3c2)c1 [Example 171, N-((6-(aminomethyl)-2,4-dimethylpyridin-3-yl)methyl)-2-((3-chloroquinolin-6-yl)methyl)isonicotinamide] | 100 to 1000 | < 100
Cc1cc(CN)nc(C)c1CNC(=O)c1ccnc(Cc2ccc3ncc(C(F)(F)F)cc3c2)c1 [Example 172, N-((6-(aminomethyl)-2,4-dimethylpyridin-3-yl)methyl)-2-((3-(trifluoromethyl)quinolin-6-yl)methyl)isonicotinamide] | < 100 | < 100
Cc1nc2c(c(C)c1CNC(=O)c1ccnc(Cc3ccc4ncc(C(F)(F)F)cc4c3)c1)CCN2 [Example 176, N-((4,6-dimethyl-2,3-dihydro-1H-pyrrolo[2,3-b]pyridin-5-yl)methyl)-2-((3-(trifluoromethyl)quinolin-6-yl)methyl)isonicotinamide] | 100 to 1000 | < 100
Cc1c(CNC(=O)c2ccnc(Cc3ccc4ncc(Cl)cc4c3)c2)ccc2c(N)nccc12 [Example 177, N-((1-amino-5-methylisoquinolin-6-yl)methyl)-2-((3-chloroquinolin-6-yl)methyl)isonicotinamide] | < 100 | < 100
Nc1nccc2c(F)c(CNC(=O)c3ccnc(Cc4ccc5ncc(Cl)cc5c4)c3)ccc12 [Example 178, N-((1-amino-5-fluoroisoquinolin-6-yl)methyl)-2-((3-chloroquinolin-6-yl)methyl)isonicotinamide] | < 100 | < 100
Nc1nccc2cc(CNC(=O)c3ccnc(Cc4ccc5ncc(Cl)cc5c4)c3)c(F)cc12 [Example 180, N-((1-amino-7-fluoroisoquinolin-6-yl)methyl)-2-((3-chloroquinolin-6-yl)methyl)isonicotinamide] | 100 to 1000 | < 100
Cc1cc2c(N)nccc2cc1CNC(=O)c1ccnc(Cc2ccc3ncc(Cl)cc3c2)c1 [Example 181, N-((1-amino-7-methylisoquinolin-6-yl)methyl)-2-((3-chloroquinolin-6-yl)methyl)isonicotinamide] | < 100 | < 100
Nc1nccc2cc(CNC(=O)c3ccnc(Cc4ccc5ncc(C(F)(F)F)cc5c4)c3)c(F)cc12 [Example 182, N-((1-amino-7-fluoroisoquinolin-6-yl)methyl)-2-((3-(trifluoromethyl)quinolin-6-yl)methyl)isonicotinamide] | 100 to 1000 | < 100
Cc1cc2c(N)nccc2cc1CNC(=O)c1ccnc(Cc2ccc3ncc(C(F)(F)F)cc3c2)c1 [Example 183, N-((1-amino-7-methylisoquinolin-6-yl)methyl)-2-((3-(trifluoromethyl)quinolin-6-yl)methyl)isonicotinamide] | < 100 | < 100
Cc1c(CNC(=O)c2ccnc(Cc3ccc4ncc(C(F)(F)F)cc4c3)c2)ccc2c(N)nccc12 [Example 184, N-((1-amino-5-methylisoquinolin-6-yl)methyl)-2-((3-(trifluoromethyl)quinolin-6-yl)methyl)isonicotinamide] | < 100 | < 100
Nc1nc(C(F)(F)F)n2cc(CNC(=O)c3ccnc(Cc4ccc5ncc(Cl)cc5c4)c3)ccc12 [Example 186, N-((1-amino-3-(trifluoromethyl)imidazo[1,5-a]pyridin-6-yl)methyl)-2-((3-chloroquinolin-6-yl)methyl)isonicotinamide] | < 100 | < 100
Cc1cc(N)nc(C)c1CNC(=O)c1ccnc(Cc2cnc3ncc(Cl)cc3c2)c1 [Example 204, N-((6-amino-2,4-dimethylpyridin-3-yl)methyl)-2-((6-chloro-1,8-naphthyridin-3-yl)methyl)isonicotinamide] | < 100 | < 100
Cc1cc(N)nc(C)c1CNC(=O)c1cc(Cc2ccc3ncc(Cl)cc3c2)nc(C(N)=O)c1 [Example 208, N^4-((6-amino-2,4-dimethylpyridin-3-yl)methyl)-6-((3-chloroquinolin-6-yl)methyl)pyridine-2,4-dicarboxamide] | < 100 | < 100
Cc1cc(N)nc(C)c1CNC(=O)c1cc(Cc2ccc3ncc(Cl)cc3c2)nc(C(=O)O)c1 [Example 209, 4-((6-amino-2,4-dimethylpyridin-3-yl)methylcarbamoyl)-6-((3-chloroquinolin-6-yl)methyl)picolinic acid] | 100 to 1000 | 
Cc1cc(N)nc(C)c1CNC(=O)c1cc(Cc2ccc3ncc(Cl)cc3c2)nc(C(C)(C)O)c1 [Example 210, N-((6-amino-2,4-dimethylpyridin-3-yl)methyl)-2-((3-chloroquinolin-6-yl)methyl)-6-(2-hydroxypropan-2-yl)isonicotinamide] | < 100 | < 100
